What was measured:
[1] = system: yeast strain YZGA515; assay: Yeast spotting assay for RAD toxicity; format: cell-based, Saccharomyces cerevisiae; settings: multiple-ABC-transporter-deficient yeast strain, SC-LEU plates with 40 mg/L RAD
Source text: (§1) Previously, we had shown that AtUGT73C6, when expressed in a multiple-ABC-transporter–deficient yeast strain, leads to the production of ZEN-14-glucoside [old nomenclature ZEN-4-glucoside, [Metzler (2011)]] after ZEN treatment ([Poppenberger et al., 2006]). […] We therefore generated RAD-glucoside for in vitro tests. […] Therefore, we were unable to determine at which position RAD was glucosylated.
Spotting of YZGA515 transformants (three serial 10^−1 dilutions) expressing either AtUGT73C6 (upper row) or containing the empty vector.

[2] = Solubility and handling stability observations; format: physicochemical
Source text: as §1

[3] = molecular target: TaHSP90-2 (Triticum aestivum, UniProt A0ACM8QAI9); assay: biochemical; settings: for ATPase inhibition of TaHSP90-2: Figure 4B-D; for remaining activity at 100 µM: read-out: remaining (residual) ATPase activity of TaHSP90-2
Source text: (§2) For initial experiments, we expressed and purified the Saccharomyces cerevisiae ScHsp82 protein. The HSP82 coding region was amplified using the primer pair HSP82-1fwd (5’-[…]-3’) and HSP82-2rev (5’-[…]-3’), which contain BamHI and HindIII sites (underlined), respectively. The resulting 2,156 bp fragment was digested with BamHI and HindIII and ligated into the expression vector pQE-80L (Qiagen) cleaved with the same enzymes yielding plasmid pGW870. The coding region of AtHSP90.1 (At5g52640) was amplified from cDNA with the oligonucleotide primers 5’-[…]-3’ and 5’-[…]-3’. The resulting PCR product was digested with NdeI and SpeI (restriction sites on primers underlined) and introduced to pQE-80L (Qiagen), cleaved with the same enzymes to obtain the construct pQE80:AtHSP90.1. The cDNA of wheat HSP90 gene TaHSP90-2 (Triticum aestivum; DQ665784.1) was amplified with 5’-[…]-3’ and 5’-[…]-3’ (NdeI and SpeI, respectively) and introduced to pQE-80L. All constructs were verified by sequencing.
(§3) Protein production was induced by isopropyl β-D-1-thiogalactopyranoside (IPTG) following the supplier’s instructions. Protein purification was performed on an Äkta system (GE Healthcare, Uppsala, Sweden). […] Further purification was done by anion exchange chromatography on a 1 ml Resource Q column (GE Healthcare). Proteins were bound to the column in 25 mM Tris/Cl pH 7.5 and eluted with a linear gradient of 0–1 M NaCl in 15 column volumes. The obtained fractions were desalted using a Sephadex™ G-25 fine column, and the purified recombinant proteins were stored in the final elution buffer (25 mM Tris/Cl pH 7.5) at 4°C.
(§4) The ATPase activities of recombinant proteins AtHSP90.1, TaHSP90-2, and ScHsp82 were assayed following the method of [Rowlands et al. (2004)] using an ATP concentration of 1 mM. The effect of several potential inhibitors was tested in 96-well plates using toxin concentrations ranging from 1 to 150 µM. All compounds were dissolved in 20% DMSO and further diluted. The assays were performed in a total volume of 25 µl with a final protein concentration of 0.2 µg/µl and 4% DMSO. Controls were incubated with the solvent DMSO without inhibitor. The reactions were incubated at 37°C for 3 h in the dark. After this time, the released inorganic phosphate was quantified with the malachite green colorimetric assay ([Rowlands et al., 2004]). The reaction was stopped by adding 10 µl of 34% sodium citrate to each well after 20 min incubation at room temperature, and the absorbance was measured at 620 nm.
To test whether the yeast model reflects the situation in dicot and monocots plants, AtHSP90.1 and an HSP90 protein from wheat were expressed and purified. The wheat cDNA previously named “TaHSP90-2” corresponds to UniProtKB Q0Q0I7 (Q0Q0I7_WHEAT). This gene belongs to a family of nine highly similar cytosolic HSP90 proteins of wheat, has been named HSP90.3-D1 in a functional study ([Wang et al., 2011]), and is located on chromosome 5D (= EnsemblPlants Traes_5DL_89CF7F5DE).

[4] = molecular target: T1, AtHSP90.1 (Arabidopsis thaliana, UniProt P27323); assay: HSP90 ATPase activity assay (malachite green), AtHSP90.1; format: biochemical
T1 construct: The coding region of AtHSP90.1 (At5g52640) was amplified from cDNA; 6xHis; made in house; host or cells: Escherichia coli BL21 (DE3) or phosphatase-deficient strain K894
Source text: as §2, §3
The ATPase activities of recombinant proteins AtHSP90.1, TaHSP90-2, and ScHsp82 were assayed following the method of [Rowlands et al. (2004)] using an ATP concentration of 1 mM. […] After this time, the released inorganic phosphate was quantified with the malachite green colorimetric assay ([Rowlands et al., 2004]). The reaction was stopped by adding 10 µl of 34% sodium citrate to each well after 20 min incubation at room temperature, and the absorbance was measured at 620 nm. […]

[5] = system: AtHSP90.1; assay: Quantitative real-time PCR of AtHSP90.1 in seedlings; format: cell-based, Arabidopsis thaliana; settings: 50 µM, 2 h, vs mock control DMSO, reference gene AT5G46630
Method: A. thaliana (ecotype Columbia, Col-0) seeds were surface-sterilized using sodium hypochlorite (2%) plus 0.01% Triton X for 10 min and rinsed twice with sterile water. Seeds were distributed in 24-well plates (4 wells per treatment, 30–40 seeds per well) and re-suspended in 1 ml (per well) of liquid Murashige and Skoog medium (“MS” basal salt mixture, Sigma) supplemented with 1% sucrose. After 2 days of stratification at 4°C, the plates were transferred to a growth chamber at 21°C under a 16 h light/8 h dark photoperiod.
Total RNA was extracted from 13-day-old A. thaliana (Col-0) seedlings grown in liquid MS medium supplemented with 2.5% sucrose and 50 μM ZEN for 2 h. […] RNA was quantified with the Qubit (Invitrogen) and NanoDrop (Peqlab) systems. […] Absolute and relative expression were calculated with a dilution series of purified AtHSP90.1 and AP2M PCR fragments of known molar concentration in each RT-qPCR run. […] Each sample was measured in triplicate from four independent cDNAs. […]
Figure 2 Transcriptional response of Arabidopsis thaliana HSP90 genes to zearalenone (ZEN). […] (B) Quantitative real-time PCR of A. thaliana HSP90.1 after 2 h treatment with ZEN (50 µM) or DMSO. The results are expressed as relative expression to the reference gene ADAPTOR PROTEIN-2 MU-ADAPTIN (AP2M; AT5G46630) and represent the means of four biological replicates ± standard deviation.

[6] = system: AtHSP90.1; set-up: method as in Werner, 2005; settings: 50 µM, 2 h, vs DMSO; ref Werner, 2005; cited from earlier work
[7] = molecular target: T2, ScHsp82p (Saccharomyces cerevisiae, UniProt P02829); assay: biochemical; format: biochemical; settings: for remaining ATPase activity of ScHsp82p: at 100 µM, relative to DMSO control
T2 construct: The HSP82 coding region was amplified using the primer pair HSP82-1fwd; 6xHis (N); made in house; host or cells: Escherichia coli BL21 (DE3) or phosphatase-deficient strain K894
Source text: as §2, with “The resulting 2,156 bp fragment was digested with BamHI and HindIII and ligated into the expression vector pQE-80L (Qiagen) cleaved with the same enzymes yielding plasmid pGW870.” left out
as §3
All compounds were dissolved in 20% DMSO and further diluted. The assays were performed in a total volume of 25 µl with a final protein concentration of 0.2 µg/µl and 4% DMSO. Controls were incubated with the solvent DMSO without inhibitor. The reactions were incubated at 37°C for 3 h in the dark.

[8] = system: Arabidopsis thaliana plants containing RPS2; set-up: method as in Takahashi et al., 2003; settings: 10 μM; ref Takahashi et al., 2003; cited from earlier work
[9] = Stability of glucosides under ATPase assay conditions (LC-MS/MS before and after incubation); format: physicochemical; settings: LC-MS/MS before and after incubation period, p = 0.21
Method: as §4
Likewise, we found all glucosides of ZEN, αZEL, and βZEL stable under identical conditions, with recoveries of > 88%, p > 0.05, in each case.

T2 sequence (P02829 whole entry): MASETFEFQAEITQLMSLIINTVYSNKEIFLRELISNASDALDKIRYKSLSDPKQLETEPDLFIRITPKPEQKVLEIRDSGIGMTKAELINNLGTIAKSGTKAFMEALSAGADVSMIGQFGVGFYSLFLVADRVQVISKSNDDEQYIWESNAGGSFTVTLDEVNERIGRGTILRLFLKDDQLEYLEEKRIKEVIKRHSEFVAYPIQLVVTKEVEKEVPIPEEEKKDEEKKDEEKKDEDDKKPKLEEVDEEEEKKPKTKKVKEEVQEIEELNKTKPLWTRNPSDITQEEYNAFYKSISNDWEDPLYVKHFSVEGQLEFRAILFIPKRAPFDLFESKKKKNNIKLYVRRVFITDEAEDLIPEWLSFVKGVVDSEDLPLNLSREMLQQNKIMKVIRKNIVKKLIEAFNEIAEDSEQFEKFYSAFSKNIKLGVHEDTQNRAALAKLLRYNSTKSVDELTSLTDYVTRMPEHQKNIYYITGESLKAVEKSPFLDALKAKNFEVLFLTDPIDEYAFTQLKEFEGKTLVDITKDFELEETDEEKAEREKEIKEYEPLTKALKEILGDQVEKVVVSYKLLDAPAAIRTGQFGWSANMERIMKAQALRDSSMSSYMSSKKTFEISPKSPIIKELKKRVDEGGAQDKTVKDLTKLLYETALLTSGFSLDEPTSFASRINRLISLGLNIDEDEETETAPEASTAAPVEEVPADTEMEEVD
TaHSP90-2, sequence (A0ACM8QAI9 1-700): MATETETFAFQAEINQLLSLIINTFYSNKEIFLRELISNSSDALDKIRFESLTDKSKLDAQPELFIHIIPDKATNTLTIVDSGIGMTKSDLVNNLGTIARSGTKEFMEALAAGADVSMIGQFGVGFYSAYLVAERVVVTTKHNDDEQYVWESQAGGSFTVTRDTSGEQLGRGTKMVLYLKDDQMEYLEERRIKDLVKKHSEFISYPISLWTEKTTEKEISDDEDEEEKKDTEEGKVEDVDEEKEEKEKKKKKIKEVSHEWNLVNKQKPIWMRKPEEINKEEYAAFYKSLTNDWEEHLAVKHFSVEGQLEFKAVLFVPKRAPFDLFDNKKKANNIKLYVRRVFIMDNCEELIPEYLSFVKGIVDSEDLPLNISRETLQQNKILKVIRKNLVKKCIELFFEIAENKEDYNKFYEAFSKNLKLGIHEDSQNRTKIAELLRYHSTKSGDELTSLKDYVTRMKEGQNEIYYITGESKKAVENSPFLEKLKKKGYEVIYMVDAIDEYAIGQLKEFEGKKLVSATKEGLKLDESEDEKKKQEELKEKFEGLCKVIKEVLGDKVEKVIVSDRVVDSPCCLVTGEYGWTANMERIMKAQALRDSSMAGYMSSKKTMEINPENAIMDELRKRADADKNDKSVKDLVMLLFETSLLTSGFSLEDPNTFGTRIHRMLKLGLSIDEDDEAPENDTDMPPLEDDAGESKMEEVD
T1 sequence (P27323 whole entry): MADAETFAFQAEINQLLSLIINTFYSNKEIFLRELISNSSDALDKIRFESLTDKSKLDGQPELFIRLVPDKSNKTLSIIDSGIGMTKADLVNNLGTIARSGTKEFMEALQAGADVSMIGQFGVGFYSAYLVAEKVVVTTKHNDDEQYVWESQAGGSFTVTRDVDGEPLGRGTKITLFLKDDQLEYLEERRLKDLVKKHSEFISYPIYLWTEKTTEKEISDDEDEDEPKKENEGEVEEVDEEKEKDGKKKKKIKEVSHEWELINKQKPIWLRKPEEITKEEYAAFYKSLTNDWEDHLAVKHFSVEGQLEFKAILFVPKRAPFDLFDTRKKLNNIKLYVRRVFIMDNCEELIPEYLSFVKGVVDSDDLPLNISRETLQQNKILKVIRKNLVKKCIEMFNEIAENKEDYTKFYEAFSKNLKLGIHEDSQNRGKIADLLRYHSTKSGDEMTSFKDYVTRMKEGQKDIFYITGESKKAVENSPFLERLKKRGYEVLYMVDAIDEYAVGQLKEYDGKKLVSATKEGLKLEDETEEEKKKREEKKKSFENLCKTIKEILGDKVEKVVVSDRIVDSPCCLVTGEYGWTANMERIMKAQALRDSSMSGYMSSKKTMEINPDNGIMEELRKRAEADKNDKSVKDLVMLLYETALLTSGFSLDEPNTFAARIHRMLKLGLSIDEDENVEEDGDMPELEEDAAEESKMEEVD

C[C@@H]1C[C@H]2O[C@@H]2/C=C\C=C\C(=O)Cc2c(Cl)c(O)cc(O)c2C(=O)O1 [RAD, radicicol, reference compound]
toxicity to yeast strain [1]: toxic | solubility in medium ([2]; yeast culture medium): limited solubility

C[C@H]1CCCC(=O)CCC/C=C/c2cc(O[C@@H]3O[C@H](CO)[C@@H](O)[C@H](O)[C@H]3O)cc(O)c2C(=O)O1 [ZEN14G, zearalenone-14-O-ß-D-glucopyranoside]
ATPase inhibition of TaHSP90-2 [3]: did not cause activity reduction | ATPase inhibition of AtHSP90.1 ([4]; 100 µM, p = 0.75): inactive

C[C@H]1CCCC(=O)CCC/C=C/c2cc(O)cc(O[C@@H]3O[C@H](CO)[C@@H](O)[C@H](O)[C@H]3O)c2C(=O)O1 [ZEN16G, zearalenone-16-O-ß-D-glucopyranoside]
ATPase inhibition of TaHSP90-2 [3]: did not cause activity reduction

C[C@H]1CCCC(=O)CCC/C=C/c2cc(O)cc(O)c2C(=O)O1 [ZEN, zearalenone]
induction of AtHSP90.1 (quantitative real-time PCR) [5]: 35 fold | induction of AtHSP90.1 (microarray) [6]: about 3.7 fold | IC50 [3]: 20 µM | remaining activity at 100 µM [3]: 12 ± 5% | IC50 [4]: ~10 µM | remaining ATPase activity of AtHSP90.1 ([4]; at 100 µM): 18 ± 6% | remaining ATPase activity of ScHsp82p [7]: 59 ± 5%

COC1=C2C[C@@H](C)C[C@H](OC)[C@H](O)[C@@H](C)/C=C(\C)[C@H](OC(N)=O)[C@@H](OC)/C=C\C=C(/C)C(=O)NC(=CC1=O)C2=O [geldanamycin]
hypersensitive response triggered by Pseudomonas syringae DC3000 (avrRpt2) [8]: diminished

C[C@H]1CCC[C@@H](O)CCC/C=C/c2cc(O)cc(O)c2C(=O)O1 [ßZEL, ß-zearalenol]
IC50 [3]: ~10 µM | remaining activity at 100 µM [3]: 0.7 ± 3.3% | remaining ATPase activity of ScHsp82p [7]: 8.6 ± 2.4% | IC50 ([7]; recombinant 6xHis ScHsp82p, 1 mM ATP, 37°C, 3 h, read-out: IC50, ATPase inhibition of ScHsp82p): ~15 µM

C[C@H]1CCC[C@H](O)CCC/C=C/c2cc(O)cc(O)c2C(=O)O1 [αZEL, α-zearalenol]
remaining activity at 100 µM [3]: 71 ± 6% | ATPase inhibition of ScHsp82p ([7]; toxin concentrations 1 to 150 µM): did not elicit a detectable response

radicicol-glucoside [RAD-glucoside]
change in concentration under assay conditions [9]: no significant | stability on handling ([2]; particularly when brought to dryness): appears unstable
